Results on 15 compounds are retold here after paper PMC11505650, “Chemical and Biological Characterization of Metabolites from Silene viridiflora Using Mass Spectrometric and Cell-Based Assays” (Biomolecules, 2024).

A value given as a limit tells only on which side of the number the result lay.

Assay [1] relates to BT-20 cells. Nature of the assay: MTT cytotoxicity assay, BT-20 cells, 72 h. It counts as cell-based, human. The settings on record: MTT test, 72 h exposure. How it is done:
(§1) The cytotoxic activity of the samples was screened against the human triple-negative breast cancer BT-20 (HTB-19), HCC1395 (ATCC®CRL-2324), MDA-MB-231 (CRM-HTB-26), and HEK293 (CRL-1573) embryonic kidney cell lines. The cells were cultured in Dulbecco’s modified eagle medium (DMEM) supplemented with 4.5 g/L glutamine and D-glucose, 10% fetal bovine serum (FBS), and a 1% penicillin/streptomycin mixture and incubated at 37 °C under a 5% CO2 humidified atmosphere. Cell passage and seeding performed after washing the adherent cells with PBS and detaching them using a Trypsin solution. The cells were detached and resuspended at 160,000 cells/mL and added into each well of a transparent 384-well plate in the final volume of 25 µL/well (4000 cells per well). The cells were maintained in DMEM containing 10% FBS at 37°C and 5% CO2 overnight. The next day, the 384-well plate was examined under an inverted microscope to identify cell seeding errors, growth characteristics, morphology and equal distribution. Then, the medium in each well was removed using a washer–dispenser (Biotek FX, Beersel, Belgium) and replaced by 40 μL of the fresh medium containing the indicated concentrations of compounds and incubated for 72 h.
(§2) The 250 µg/mL concentrations of methanol extract and 20 mM concentrations of individual compounds were prepared as a stock solution in DMSO (Sigma-Aldrich Chemie GmbH, Taufkirchen, Germany) prior to use. A complete medium was used to prepare this solution. The samples were further serially diluted in DMSO into eleven different concentrations and then added to the complete cell culture medium so as to attain the final concentrations ranging from 250 to 8.6 µg/mL (250, 178.6, 127.6, 91.1, 65.1, 46.5, 33.2, 23.7, 16.9, 12.1, and 8.6 µg/mL) for the extract and 20 to 1.45 µM (20, 15.4, 11.8, 9.1, 7.0, 5.4, 4.1, 3.2, 2.5, 1.9, and 1.5 µM) for the individual compounds in 384-well plates, which were added in four replicates. A 40 µL sample containing medium from each concentration was dispensed into each well. The concentration of the solvent, DMSO, was equal in all the wells and was fixed at 0.05% in the medium. As a negative control, cells were treated with DMEM containing DMSO. Docetaxel (concentration of 0.02 µM to 6.9 nM) is used as a positive control.
(§3) The cytotoxicity of the samples was determined in triplicate using the 3-(4,5-dimethylthiazol-2-yl)-2,5-diphenyltetrazolium bromide (MTT) cell viability assay. The next day, the medium of the 384-well plates treated with samples was removed. Then, 25 µL of MTT solution (0.5 mg MTT in 1 mL PBS) was added to each well and incubated at 37 °C for 2 h. After incubation with MTT for 2 h, the solution was removed from the wells by the washer–dispenser, and the formed formazan crystals were then dissolved in 25 µL of DMSO. After a further 10 min of incubation at room temperature, the samples were mixed briefly, and the absorbance was detected at 510 nm with a Tecan Infinite 200 Pro Reader (Tecan Group Ltd., Männedorf, Switzerland). The cell viability rate (%) was calculated by the following formula:Cell viability rate (%) = ((OD of treated cells − OD of media (blank)/(OD of control cells − OD of media (blank)) × 100%
(§4) The experiments were carried out in four replicates. Continuous variables were presented as the mean ± SD. […] The level of significance was set at p < 0.05. The IC50 (inhibitory concentration which caused 50% inhibition) was estimated using the linear regression method of plots of the percent of cell viability against the concentration of the tested compounds using GraphPad Prism 8.0.1 software (San Diego, CA, USA).
(Formazan colour is commonly taken as a measure of viable cells.)

Assay [2] relates to MDA-MB-231 cells. Nature of the assay: MTT cytotoxicity assay, MDA-MB-231 cells, 72 h. It counts as cell-based, human. The settings on record: MTT test, 72 h exposure. How it is done: as §1, §2, §3, §4
The subject of assay [3] is HCC1395 cells. Nature of the assay: MTT cytotoxicity assay, HCC1395 cells, 72 h. It counts as cell-based, human. The settings on record: MTT test, 72 h exposure. How it is done: as §1, §2, §3, §4
Assay [4] concerns HEK293 cells. The assay is described as follows: MTT cytotoxicity assay, HEK293 embryonic kidney cells, 72 h. Particulars: MTT test, 72 h exposure. It counts as cell-based, human.
Assay [5] relates to Wnt signaling. The assay is described as follows: TOPFlash assay (Wnt3a-stimulated BT-20 reporter cells). It counts as cell-based, human. Particulars: BT-20 cells, 20 µM (extract 20 μg/mL). How it is done: The TOPFlash assay was performed as described. TNBC BT-20 cell line stably transfected with TopFlash reporter plasmid was seeded at 450,000 cells/mL in a white opaque 384-well plate in the final volume of 25 μL. The cells were maintained and incubated at 37 °C with 5% CO2 overnight for attachment. Subsequently, they were transfected by a plasmid encoding Renilla luciferase under the CMV promoter using 12 μg/mL of DNA and 40 μL/mL XtremeGENE 9 reagent as described in the manufacturer’s protocol. The next day, the medium in each well was replaced with a 20 μL fresh medium containing Wnt3a (2.5 μg/mL) and compound dilution. Compound dilutions were prepared by serial dilution in DMSO and diluted with the amount of medium necessary to obtain their final concentrations indicated on the figures and tables and maintain a concentration of DMSO of 0.05% in all assay points. Wnt3a was added after 1 h of preincubation with compound dilution. After overnight incubation, the supernatant in each well was removed by the washer–dispenser, and the luciferase activity was measured as described. […] Next, the luciferase activity of the firefly and Renilla luciferases was detected sequentially in individual wells of a 384-well plate through the injection of corresponding measurement solutions in Tecan Infinite 200 Pro multifunctional plate reader with an injection module.

Assay [6] deals with MCF-7, MDA-MB-231, and MDA-MB-468 cells. Also on record: method as in PMID 33192507. Particulars: breast cancer cells; cited from earlier work.
Where [7] appears, read: Homo sapiens, BT-20, average ± SEM, N = 3.
Where [8] appears, read: Homo sapiens, MDA-MB-231, average ± SEM, N = 3.
Setting [9] is: Homo sapiens, HCC1395, average ± SEM, N = 3.
The mark [10] stands for this setting: Homo sapiens, HEK293, average ± SEM, N = 3.

In the case of `CC1(C)CC[C@]2(C(=O)O)CC[C@]3(C)C(=CC[C@@H]4[C@@]5(C)CC[C@H](O)C(C)(C)[C@@H]5CC[C@]43C)[C@@H]2C1` [Compound 71, Oleanolic acid], the IC50 in assay [1] (setting [7]), in assay [2] (setting [8]), in assay [3] (setting [9]) and in assay [4] (setting [10]) was greater than 20 µM each time.
Turning to `CC(C)(O)CC[C@@H](O)[C@](C)(O)[C@H]1CC[C@@]2(O)C3=CC(=O)[C@@H]4C[C@@H](O)[C@@H](O)C[C@]4(C)[C@H]3[C@H](O)C[C@]12C` [Compound 75, Turkesterone], the IC50 in assay [1] (setting [7]), in assay [2] (setting [8]), in assay [3] (setting [9]) and in assay [4] (setting [10]) was greater than 20 µM each time.
For `CC(=O)O[C@@]12CO[C@@H]1C[C@H](O)[C@@]1(C)C(=O)[C@H](O)C3=C(C)[C@@H](OC(=O)[C@H](O)[C@@H](NC(=O)OC(C)(C)C)c4ccccc4)C[C@@](O)([C@@H](OC(=O)c4ccccc4)[C@H]21)C3(C)C` [Docetaxel, reference compound], the half-maximal inhibitory concentration (IC50) was determined as 0.0044 ± 8e-07 µM in assay [1] (Homo sapiens, BT-20, positive control); 0.0177 ± 2.9e-06 µM in assay [2] (Homo sapiens, MDA-MB-231, positive control); 0.0065 ± 7e-07 µM in assay [3] (Homo sapiens, HCC1395, positive control); 0.00447 ± 1.3e-06 µM in assay [4] (Homo sapiens, HEK293, positive control).
For `O=c1cc(-c2ccc(O)cc2)oc2c([C@@H]3OC[C@H](O)[C@H](O)[C@H]3O)c(O)c([C@@H]3O[C@H](CO)[C@@H](O)[C@H](O)[C@H]3O)c(O)c12` [Compound 29, Schaftoside (apigenin 6-C-β-D -glucoside-8-C-α-L-arabinoside)], the IC50 in assay [1] (setting [7]), in assay [2] (setting [8]), in assay [3] (setting [9]) and in assay [4] (setting [10]) was greater than 20 µM throughout.
As for `C[C@@H]1C(=O)O[C@H](C)[C@H]1C[C@@H](O)[C@](C)(O)[C@H]1CC[C@@]2(O)C3=CC(=O)[C@@H]4C[C@@H](O)[C@@H](O)C[C@]4(C)[C@H]3CC[C@]12C` [Compound 76, Cyasterone], the concentration for half-maximal inhibition (IC50) in assay [1] (setting [7]), in assay [2] (setting [8]), in assay [3] (setting [9]) and in assay [4] (setting [10]) was greater than 20 µM each time.
As to `O=C(O)C=Cc1ccc(O)cc1` [Compound 21, p-Coumaric acid], the concentration for half-maximal inhibition (IC50) in assay [1] (setting [7]), in assay [2] (setting [8]), in assay [3] (setting [9]) and in assay [4] (setting [10]) was greater than 20 µM throughout.
For the compound `C[C@@H]1O[C@@H](OC[C@H]2O[C@@H](Oc3c(-c4ccc(O)c(O)c4)oc4cc(O)cc(O)c4c3=O)[C@H](O)[C@@H](O)[C@@H]2O)[C@H](O)[C@H](O)[C@H]1O` [Compound 41, Rutin (quercetin-3-O-rutinoside)], the IC50 in assay [1] (setting [7]), in assay [2] (setting [8]), in assay [3] (setting [9]) and in assay [4] (setting [10]) was greater than 20 µM each time.
On to `COc1cc(/C=C/C(=O)O)ccc1O` [Compound 19, Ferulic acid], for which the IC50 is greater than 20 µM in assay [1] (average ± SEM, N = 3); greater than 20 µM in assay [2] (average ± SEM, N = 3); greater than 20 µM in assay [3] (average ± SEM, N = 3); greater than 20 µM in assay [4] (average ± SEM, N = 3).
`C[C@H]([C@H](O)CCC(C)(C)O)[C@H]1CC[C@@]2(O)C3=CC(=O)[C@@H]4C[C@@H](O)[C@@H](O)C[C@]4(C)[C@H]3CC[C@]12C` [Compound 73, Ecdysone]: the half-inhibitory concentration (IC50) in assay [1] (setting [7]), in assay [2] (setting [8]), in assay [3] (setting [9]) and in assay [4] (setting [10]) was greater than 20 µM throughout.
As for `CC(C)(O)CC[C@@H](O)[C@](C)(O)[C@H]1CC[C@@]2(O)C3=CC(=O)[C@@H]4C[C@@H](O)CC[C@]4(C)[C@H]3CC[C@]12C` [Compound 58, 2-Deoxy-20-hydroxyecdysone], in assay [5], the “Inhibition of Wnt signaling” value was “not a Wnt signaling inhibitor”. For the same compound, the IC50 was found to be 0.12 ± 0.006 µM in assay [1] (setting [7]), 0.53 ± 0.14 µM in assay [2] (setting [8]), 0.21 ± 0.01 µM in assay [3] (setting [9]) and 0.27 ± 0.01 µM in assay [4] (setting [10]).
Turning to `C[C@H]([C@H](O)CCC(C)(C)O)[C@H]1CC[C@@]2(O)C3=CC(=O)[C@@H]4C[C@@H](O)CC[C@]4(C)[C@H]3CC[C@]12C` [Compound 72, 2-Deoxyecdysone], the half-maximal inhibitory concentration (IC50) in assay [1] (setting [7]), in assay [2] (setting [8]), in assay [3] (setting [9]) and in assay [4] (setting [10]) was greater than 20 µM each time.
As for `O=c1cc(-c2ccc(O)cc2)oc2cc(O[C@@H]3O[C@H](CO)[C@@H](O)[C@H](O)[C@H]3O)c([C@@H]3O[C@H](CO)[C@@H](O)[C@H](O)[C@H]3O)c(O)c12` [Compound 38, Saponarin (isovitexin 7-O-β-D-glucoside)], the 50% inhibitory concentration (IC50) in assay [1] (average ± SEM, N = 3) is greater than 20 µM; in assay [2] (average ± SEM, N = 3) it was greater than 20 µM; in assay [3] (average ± SEM, N = 3), greater than 20 µM; in assay [4] (average ± SEM, N = 3), greater than 20 µM.
Take `CC(C)(O)CC[C@@H](O)[C@](C)(O)[C@H]1CC[C@@]2(O)C3=CC(=O)[C@@H]4C[C@@H](O)[C@@H](O)C[C@]4(C)[C@H]3CC[C@]12C` [Compound 50, 20-Hydroxyecdysone]: the IC50 in assay [1] (setting [7]), in assay [2] (setting [8]), in assay [3] (setting [9]) and in assay [4] (setting [10]) was greater than 20 µM each time. For the same compound, the “Concentration range in which autophagy induction / synergistic effect with doxorubicin was observed” value in assay [6] was 250 to 750 µM.
As to `O=C(O)[C@]1(O)C[C@@H](O)[C@@H](O)[C@H](O)C1` [Compound 12, Quinic acid], the 50% inhibitory concentration (IC50) in assay [1] (setting [7]), in assay [2] (setting [8]), in assay [3] (setting [9]) and in assay [4] (setting [10]) was greater than 20 µM each time.
As to `CC(=O)OC(C)(C)CC[C@@H](O)[C@](C)(O)[C@H]1CC[C@@]2(O)C3=CC(=O)[C@@H]4C[C@@H](O)[C@@H](O)C[C@]4(C)[C@H]3CC[C@]12C` [Compound 74, Viticosterone E], the IC50 in assay [1] (setting [7]), in assay [2] (setting [8]), in assay [3] (setting [9]) and in assay [4] (setting [10]) was greater than 20 µM in each case.

Broadly, the IC50 is the concentration needed to halve the response being measured. Low readings indicate greater potency in that assay, high ones weaker potency in that assay.
